How the values were obtained:
HAdV5-GFP [1] = assay: Entry assay, HAdV5-GFP in A549 cells (GFP expression); format: cell-based
Experimental: 1.3. Entry assay. An initial rapid screening was performed using human A549 epithelial cells (3×10^5 cells/well in Corning black wall, clear bottom 96-well plates) infected with HAdV5-GFP (2,000 vp/cell) in the presence of 50 μM of the candidate antiviral compounds. Virus was preincubated with the compounds (individual and mixed) for 45 minutes at 4° C., and then added to cells. A standard infection curve was generated in parallel by infecting cells in the absence of compounds using serial two-fold dilutions of virus. All reactions were done in triplicate. Cells, virus and compounds were incubated for 48 h at 37° C. and 5% CO2. Infection, as measured by HAdV-mediated GFP expression, was analyzed using a Typhoon 9410 imager (GE Healthcare Life Sciences), and quantified with ImageQuantTL (GE Healthcare Life Sciences).

[2] = tested on: Acinetobacter baumannii strains resistant to colistine; assay: Screening of inhibition of bacterial growth at 50 μM; format: cell-based; conditions: 5×10^5 CFU/ml, 18 h; for Screening, growth inhibition Ab 14: strain Ab 14, 50 μM; for Screening, growth inhibition Ab 17: strain Ab 17, 50 μM; for Screening, growth inhibition Ab 21R: strain Ab 21R; for Screening, growth inhibition Ab 21R / Screening, growth inhibition Ab 22P: 50 μM; for Screening, growth inhibition Ab 11: strain Ab 11, 50 μM; for Screening, growth inhibition Ab 24: strain Ab 24, 50 μM; for Screening, growth inhibition Ab 22P: strain Ab 22P
Excerpt: (§1) All of the strains used were Acinetobacter baumannii strains resistant to colistine: Resistance (R)≥4 Sensibility (S)≤2—All of these strains have been disclosed in Valencia R, Arroyo L A, Conde M, Aldana J M, Torres M J, Fernandez-Cuenca F, et al. Nosocomial outbreak of infection with pan-drug-resistant Acinetobacter baumannii in a tertiary care university hospital. Infection control and hospital epidemiology. 2009; 30(3):257-63. The specific strains used were the following: 1, 10, 11, 14, 16, 17, 19, 20, 21R, 22P, 24, 99 and 113.
Evaluation of the inhibition of the bacterial growth of the 4 families of piperazines derivatives was performed by using a final concentration of 50 μM of each piperazine derivative in a concentration of 5×10^5 CFU/ml of each strain of A. baumannii in 96-well plates.
These plates were incubated for 18 hours at 37° C.

HAdV5-GFP [3] = assay: Plaque assay, HAdV5-GFP in 293β5 cells; format: cell-based; conditions: for inhibition at 10 µM: read-out: Percentage of plaque formation inhibition, HAdV5-GFP, 10 μM, 293β5 cell line
Experimental: 1.5. Plaque assay. For low MOI infections, active compounds were further evaluated in a plaque assay. 293β5 cells were seeded in 6-well plates at 4×10^5 cells per well in duplicate for each condition. When cells reached 80-90% confluency, they were infected with HAdV5-GFP or HAdV16-GFP (0.06 vp/cell) and rocked for 2 h at 37° C. The inoculum was removed and the cells were washed once with PBS. The cells were then carefully overlaid with 4 ml/well of equal parts of 1.6% […] Difco Agar Noble (Becton, Dickinson & Co, Sparks, MD) and 2× EMEM (BioWhittaker) supplemented with 2x penicillin/streptomycin, 2× L-glutamine and 10% FBS. The mixture also contained compound in concentrations ranging from 5 to 1 μM. Following incubation for 7 days at 37° C., plates were scanned with a Typhoon 9410 imager (GE Healthcare Life Sciences), and plaques were quantified with ImageJ.43
For the plaque assay 293β5 cells were infected with HAdV5-GFP (in the presence of compound at 10 μM) (Table 2). From this generation of compounds, our primary screening identified 4 compounds (12, 13, 22 and 25) that inhibited HAdV5-GFP plaque formation >90% compared to a control with the same volume of DMSO.

[4] = tested on: Acinetobacter baumannii strains resistant to colistine; assay: Minimal inhibitory concentration (MIC), microdilution in MHBII; format: cell-based; conditions: 5×10^5 CFU/ml, 18 h; for CMI (MIC) Ab 14: strain Ab 14, MHBII; for CMI (MIC) Ab 17: strain Ab 17, MHBII; for CMI (MIC) Ab 21R: strain Ab 21R; for CMI (MIC) Ab 21R / CMI (MIC) Ab 22P: MHBII; for CMI (MIC) Ab 11: strain Ab 11, MHBII; for CMI (MIC) Ab 24: strain Ab 24, MHBII; for CMI (MIC) Ab 22P: strain Ab 22P
Excerpt: as §1
Microdilution in cell medium Mueller Hinton Broth II (MHBII). This technique was carried out solely in those piperazines which presented inhibitory activity in the screening study.
We used decreasing concentrations of each piperazine derivative (from 50 μM -0.05 μM) in a concentration of 5×10^5 CFU/ml of each strain of A. baumannii in 96 well plates. These plates were incubated for 18 hours at a temperature 37° C.

A549 cells = assay: Cytotoxicity assay (alamarBlue cell viability); format: cell-based, Human
Experimental: (§2) 1.4. Cytotoxicity assay. The cytotoxicity of the compounds was measured using the AlarmBlue cell viability assay (Invitrogen) according to the manufacturer's instructions. Actively dividing A549 cells were incubated with compounds for 48 h. After the incubation the alamarBlue reagent was added to the cells ( 1/10th alamarBlue reagent in culture medium) for an extra 4 h. The 50% cell cytotoxic concentration (CC50) of the molecules was calculated according to Cheng et al.42 The selectivity index (SI) was evaluated as the ratio of CC50 to IC50, where the IC50 is defined as the concentration of compound that inhibits HAdV infection by 50%.

[5] = Cytotoxicity assay (alamarBlue cell viability); format: cell-based, Human; conditions: human, A549 cells, 48 h
Experimental: as §2

Compound | Starting Inhibition assay (HAdV5-GFP [1]) | Screening, growth inhibition Ab 14 [2] | Inhibition assay in plaque (HAdV5-GFP [3]) | CMI (MIC) Ab 14 [4] | Screening, growth inhibition Ab 17 [2] | Screening, growth inhibition Ab 21R [2] | CMI (MIC) Ab 17 [4] | CMI (MIC) Ab 21R [4] | Screening, growth inhibition Ab 11 [2] | Screening, growth inhibition Ab 24 [2] | CMI (MIC) Ab 11 [4] | CMI (MIC) Ab 24 [4] | CC50 (A549 cells) | Screening, growth inhibition Ab 22P [2] | CMI (MIC) Ab 22P [4] | melting point | CC50 at 48 h [5] | inhibition at 10 µM (HAdV5-GFP [3])
COc1ccc(NC(=S)N2CCN(C(=O)OC(C)(C)C)CC2C)cc1 (centres unmarked) [Vip 590] | 62.79 ± 17.03 | <50 µM | 36.55 ± 30.13 | >50 µM |  |  |  |  |  |  |  |  |  |  |  |  |  | 
Cc1ccc(NC(=S)N2CCN(C(=O)OC(C)(C)C)CC2C)cc1 (centres unmarked) [Vip 591] | 56.61 ± 17.69 | <50 µM | 49.11 ± 4.73 | >50 µM | <50 µM | <50 µM | 50 µM | 50 µM |  |  |  |  |  |  |  |  |  | 
Cc1ccc(NC(=S)N2CCN(C(=O)Cc3ccccc3)CC2C)cc1 (centres unmarked) [Vip 636] | 73.72 ± 14.39 |  | 13.79 ± 25.70 |  | <50 µM | <50 µM | 25 µM | 25 µM | <50 µM | <50 µM | 50 µM | 50 µM |  |  |  |  |  | 
CC1CN(C(=O)Cc2ccccc2)CCN1C(=S)Nc1ccc(F)cc1 (centres unmarked) [Vip 638] | 72.06 ± 14.91 |  | 28.90 ± 23.21 |  |  |  |  |  |  | <50 µM |  | 50 µM |  |  |  |  |  | 
CC1CN(C(=O)Cc2ccccc2)CCN1C(=S)Nc1ccc(Cl)cc1 (centres unmarked) [Vip 629] | 59.51 ± 17.45 | <50 µM | 84.56 ± 15.72 | 25 µM | <50 µM | <50 µM | 25 µM | 50 µM | <50 µM | <50 µM | 25 µM | 50 µM | 175 µM |  |  |  |  | 
CC1CN(C(=O)OC(C)(C)C)CCN1C(=S)Nc1ccc(Cl)cc1 (centres unmarked) [Vip 580] | 64.11 ± 16.81 | <50 µM | 73.43 ± 4.19 | 50 µM | <50 µM | <50 µM | 50 µM | 50 µM | <50 µM | <50 µM | 50 µM | 50 µM | 167 µM | <50 µM | 50 µM |  |  | 
COc1ccc(NC(=S)N2CCN(C(=O)Cc3ccccc3)CC2C)cc1 (centres unmarked) [Vip 637] | 61.99 ± 17.15 |  | 29.36 ± 36.56 |  | <50 µM |  | 50 µM |  |  | <50 µM |  | >50 µM |  |  |  |  |  | 
CC1CN(C(=O)OC(C)(C)C)CCN1C(=S)Nc1cc(C(F)(F)F)cc(C(F)(F)F)c1 (centres unmarked) [Vip 592] | 71.76 ± 15.00 | <50 µM | 11.11 ± 19.25 | 3.12 µM |  |  |  |  |  |  |  |  |  |  |  |  |  | 
CC1CN(C(=O)OC(C)(C)C)CCN1C(=O)Nc1cc(C(F)(F)F)ccc1Cl (centres unmarked) [Compound 30, 4-tert-Butoxycarbonyl-1-[(2-chloro-5-trifluoromethylphenyl)aminocarbonyl]-2-methylpiperazine] |  |  |  |  |  |  |  |  |  |  |  |  |  |  |  | 98 to 100 °C | 63.5 ± 8.22 µM | 91 to 100%
CC1CN(C(=O)Cc2ccccc2)CCN1C(=S)Nc1ccc(C(F)(F)F)cc1 (centres unmarked) [Vip 633] | 43.12 ± 17.16 |  | 45.36 ± 16.56 |  | <50 µM |  | 25 µM |  | <50 µM | <50 µM | 25 µM | 50 µM |  |  |  |  |  | 
CC1CN(C(=O)OC(C)(C)C)CCN1C(=S)Nc1ccc(C(F)(F)F)cc1 (centres unmarked) [Vip 604] | 43.24 ± 17.18 |  | 73.43 ± 22.49 |  |  | <50 µM |  | 25 µM |  | <50 µM |  | 25 µM |  | <50 µM | 25 µM |  |  | 
CC1CN(C(=O)OC(C)(C)C)CCN1C(=O)Nc1ccc(Cl)c(C(F)(F)F)c1 (centres unmarked) [Compound 31, 4-tert-Butoxycarbonyl-1-[(4-chloro-3-trifluoromethylphenyl)aminocarbonyl]-2-methylpiperazine] |  |  |  |  |  |  |  |  |  |  |  |  |  |  |  | 157 to 159 °C | 20.8 ± 0.64 µM | 91 to 100%

Reference: patent US20190308956A1, “PIPERAZINE DERIVATIVES AS ANTIVIRAL AGENTS WITH INCREASED THERAPEUTIC ACTIVITY” (SERVICIO ANDALUZ DE SALUD, priority 2016, published 2019)
